Data as given in ChEMBL document CHEMBL5143724, “Small Molecules Promote Selective Denaturation and Degradation of Tubulin Heterodimers through a Low-Barrier Hydrogen Bond” (J Med Chem, 2022).
One block for each compound: values may come before it. Calls of active or inactive are those of the source. The calls are words filed in the database; no cut-off is given here.

Experiments:
[1] = target: T1, Tubulin beta (Homo sapiens) (UniProt P68371+Q9H4B7+Q13509+P04350+Q3ZCM7+P07437+Q13885+Q9BVA1+Q9BUF5+A6NNZ2); experiment: Induction of Beta tubulin degradation in human HeLa cells at 0.001 to 100 uM incubated for 16 hrs by immunoblotting analysis; type: cell-based; conditions: dose 0.001-100 µM
HeLa [2] = experiment: Antiproliferative activity against human HeLa cells assessed as cell viability at 0.001 to 100 uM incubated for 48 hrs by MTT assay; type: functional, cell-based; conditions: dose 0.001-100 µM
[3] = target: T1, Tubulin beta (Homo sapiens); experiment: Induction of Beta tubulin degradation in human HeLa cells assessed as increase in ubiquitination level of Beta tubulin at 1 to 10 uM incubated for 6 hrs by immunoblot analysis; type: cell-based; conditions: dose 1-10 µM
[4] = system: Tubulin beta (Homo sapiens), P68371+Q9H4B7+Q13509+P04350+Q3ZCM7+P07437+Q13885+Q9BVA1+Q9BUF5+A6NNZ2 [UNDEFINED MUTATION]; experiment: Induction of FLAG tagged Beta tubulin E198D mutant (unknown origin) transfected in HeLa cells incubated for 16 hrs by immunoblotting analysis; type: cell-based
HeLa [5] = experiment: Downregulation of Alpha tubulin level in human HeLa cells at 1 uM by immunoblot analysis; type: functional, cell-based; conditions: time 1-16 hrs, TDE = time-dependent effect
Tubulin alpha = experiment: Induction of Alpha tubulin degradation in human HeLa cells incubated for 24 hrs by immunoblot analysis; type: cell-based
Tubulin beta = experiment: Induction of Beta tubulin degradation in human HeLa cells incubated for 24 hrs by immunoblot analysis; type: cell-based
[6] = target: T2, Tubulin alpha (Homo sapiens) (UniProt P0DPH7+P68366+Q71U36+P68363+Q9BQE3+Q6PEY2+A6NHL2+Q9NY65); experiment: Induction of Alpha tubulin degradation in human HeLa cells at 1 uM incubated for 16 hrs in presence of vinblastine by immunoblot analysis; type: cell-based
[7] = target: T1, Tubulin beta (Homo sapiens); experiment: Binding affinity to Beta-tubulin colchicine binding site in human HeLa cells assessed as inhibition of tubulin-EBI adduct formation at 2 to 25 uM pretreated fo 1 hr with compound followed by EBI addition measured after 2 hrs by Western blotting analysis; type: cell-based; conditions: dose 2-25 µM, time 3.0 hrs
[8] = system: Tubulin beta (Homo sapiens), P68371+Q9H4B7+Q13509+P04350+Q3ZCM7+P07437+Q13885+Q9BVA1+Q9BUF5+A6NNZ2 [UNDEFINED MUTATION]; experiment: Induction of FLAG tagged Beta tubulin (unknown origin) Y200F mutant transfected in human HeLa cells incubated for 16 hrs by immunoblotting analysis; type: cell-based
HeLa [9] = experiment: Downregulation of Alpha tubulin level in human HeLa cells incubated for 24 hrs by immunoblot analysis; type: functional, cell-based; conditions: dose 0.1-10 µM, DDE = dose-dependent effect
NCI-H460 [10] = experiment: Downregulation of Alpha tubulin level in human NCI-H460 cells incubated for 24 hrs by immunoblot analysis; type: functional, cell-based; conditions: dose 0.1-10 µM, DDE = dose-dependent effect
Tubulin (Homo sapiens) [11] = target: T3, Tubulin (Homo sapiens) (UniProt P68371+Q9H4B7+P0DPH7+P68366+Q13509+Q71U36+P04350+Q3ZCM7+P07437+P68363+Q9BQE3+Q6PEY2+Q13885+Q9BVA1+Q9BUF5); experiment: Induction of tubulin degradation in human HeLa cells assessed as ubiquitin of total protein at 0.01 to 100 uM incubated for 16 hrs by immunoblot analysis; type: cell-based; conditions: dose 0.01-100 µM
HCT-116 [12] = experiment: Induction of apoptosis in human HCT-116 cells assessed as accumulation of cells at G2/M phase 0.1 to 10 uM incubated for 16 hrs by propidium iodide staining based flow cytometry; type: functional, cell-based; conditions: dose 0.1-10 µM
[13] = target: T2, Tubulin alpha (Homo sapiens); experiment: Induction of Alpha tubulin degradation in human HeLa cells at 1 uM incubated for 16 hrs in presence of maytansine by immunoblot analysis; type: cell-based
HeLa [14] = experiment: Induction of FLAG tagged Beta tubulin E198Q mutant (unknown origin) transfected in HeLa cells incubated for 16 hrs by immunoblotting analysis; type: cell-based; conditions: Homo sapiens
SU-DHL-6 [15] = experiment: Downregulation of Beta tubulin level in human SU-DHL-6 cells incubated for 24 hrs by immunoblot analysis; type: functional, cell-based; conditions: dose 0.1-10 µM, DDE = dose-dependent effect
NCI-H460 [16] = experiment: In vivo antitumor activity against human NCI-H460 cells xenografted in Balb/c nude athymic mouse assessed as inhibition of tumor growth administered ip once a week and measured every 2 days for 24 days; type: functional, organism-based; conditions: dose 10-40 mg/kg, time 2.0 day, DDE = dose-dependent effect
HeLa [17] = experiment: Reduction in Alpha tubulin mRNA expression in human HeLa cells at 1 uM measured upto 16 hrs by qPCR analysis; type: functional, cell-based
Tubulin (Homo sapiens) [18] = target: T3, Tubulin (Homo sapiens); experiment: Destabilization of tubulin (unknown origin) assessed as melting temperature at 30 uM incubated for 20 mins by differential scanning fluorimetry; type: protein-complex assay
NCI-H460 [19] = experiment: Downregulation of Beta tubulin level in human NCI-H460 cells incubated for 24 hrs by immunoblot analysis; type: functional, cell-based; conditions: dose 0.1-10 µM, DDE = dose-dependent effect
[20] = target: T2, Tubulin alpha (Homo sapiens); experiment: Induction of Alpha tubulin degradation in human HeLa cells assessed as increase in ubiquitination level of Alpha tubulin at 1 to 10 uM incubated for 6 hrs by immunoblot analysis; type: cell-based; conditions: dose 1-10 µM
HeLa [21] = experiment: Reduction in Beta tubulin mRNA expression in human HeLa cells at 1 uM measured upto 16 hrs by qPCR analysis; type: functional, cell-based
HeLa [22] = experiment: Downregulation of Alpha tubulin level in human HeLa cells at 1 uM measured for 6 hrs by tandem mass tag quantitative proteomic analysis; type: functional, cell-based
HCT-116 [23] = experiment: Downregulation of Alpha tubulin level in human HCT-116 cells at 1 uM by immunoblot analysis; type: functional, cell-based; conditions: time 1-16 hrs, TDE = time-dependent effect
HCT-116 [24] = experiment: In vivo antitumor activity against human HCT-116 cells xenografted in Balb/c nude athymic mouse assessed as inhibition of tumor growth administered ip once a week and measured every 2 days for 24 days; type: functional, organism-based; conditions: dose 10-40 mg/kg, time 2.0 day, DDE = dose-dependent effect
HCT-116 [25] = experiment: In vivo antitumor activity against human HCT-116 cells xenografted in mouse model assessed as reduction in beta tubulin level at 80 mg/kg administered once through tail vein injection measured after 24 hrs by immunoblot analysis; type: functional, organism-based
Tubulin (Sus scrofa) [26] = target: T4, Tubulin (Sus scrofa) (UniProt P02554+P02550); experiment: Inhibition of porcine tubulin polymerization measured every 1 min for 30 mins in presence of GTP by microplate reader analysis; type: protein assay; conditions: dose 5-20 µM, DDE = dose-dependent effect
HCT-116 [27] = experiment: Antiproliferative activity against human HCT-116 cells assessed as cell viability at 0.001 to 100 uM incubated for 72 hrs by MTT assay; type: functional, cell-based; conditions: dose 0.001-100 µM
HCT-116 [28] = experiment: In vivo antitumor activity against human HCT-116 cells xenografted in mouse model assessed as reduction in alpha tubulin level at 80 mg/kg administered once through tail vein injection measured after 24 hrs by immunoblot analysis; type: functional, organism-based
HeLa [29] = experiment: Downregulation of Beta tubulin level in human HeLa cells at 1 uM measured for 6 hrs by tandem mass tag quantitative proteomic analysis; type: functional, cell-based
HeLa [30] = experiment: Downregulation of Beta tubulin level in human HeLa cells at 1 uM by immunoblot analysis; type: functional, cell-based; conditions: time 1-16 hrs, TDE = time-dependent effect
HCT-116 [31] = experiment: Downregulation of Alpha tubulin level in human HCT-116 cells incubated for 24 hrs by immunoblot analysis; type: functional, cell-based; conditions: dose 0.1-10 µM, DDE = dose-dependent effect
[32] = target: T1, Tubulin beta (Homo sapiens); experiment: Induction of wild type flag tagged Beta tubulin (unknown origin) transfected in HeLa cells incubated for 16 hrs by immunoblotting analysis; type: cell-based
Tubulin (Homo sapiens) [33] = target: T3, Tubulin (Homo sapiens); experiment: Induction of tubulin […] (unknown origin) assessed as increase in turbidity at 5 to 20 uM measured every one min for 30 mins by absorbance based analysis; type: protein-complex assay; conditions: dose 5-20 µM
HeLa [34] = experiment: Downregulation of Beta tubulin level in human HeLa cells incubated for 24 hrs by immunoblot analysis; type: functional, cell-based; conditions: dose 0.1-10 µM, DDE = dose-dependent effect
HeLa [35] = experiment: Induction of apoptosis in human HeLa cells assessed as accumulation of cells at G2/M phase 0.1 to 10 uM incubated for 16 hrs by propidium iodide staining based flow cytometry; type: functional, cell-based; conditions: dose 0.1-10 µM
NCI-H460 [36] = experiment: Antiproliferative activity against human NCI-H460 cells assessed as cell viability at 0.001 to 100 uM incubated for 72 hrs by MTT assay; type: functional, cell-based; conditions: dose 0.001-100 µM
HeLa [37] = experiment: Antiproliferative activity against human Hela cells assessed as cell viability at 0.001 to 100 microM incubated for 72 hrs by MTT assay; type: functional, cell-based; conditions: dose 0.001-100 µM
Tubulin (Sus scrofa) [38] = target: T4, Tubulin (Sus scrofa); experiment: Induction of porcine tubulin aggregation assessed as formation of spherical sized tubulin aggregates at 20 uM incubated for 4 hrs by TEM analysis; type: protein assay
Tubulin (Homo sapiens) [39] = target: T3, Tubulin (Homo sapiens); experiment: Induction of tubulin aggregation in human HeLa cells by size-exclusion chromatography; type: cell-based
HeLa [40] = experiment: Induction of FLAG tagged Beta tubulin E198G mutant (unknown origin) transfected in HeLa cells incubated for 16 hrs by immunoblotting analysis; type: cell-based; conditions: Homo sapiens
[41] = target: T2, Tubulin alpha (Homo sapiens); experiment: Induction of Alpha tubulin degradation in human HeLa cells at 1 uM incubated for 16 hrs in presence of pironetin by immunoblot analysis; type: cell-based
[42] = target: T1, Tubulin beta (Homo sapiens); experiment: Induction of Beta tubulin degradation in human HeLa cells at 1 uM incubated for 16 hrs in presence of vinblastine by immunoblot analysis; type: cell-based
[43] = target: T1, Tubulin beta (Homo sapiens); experiment: Induction of Beta tubulin degradation in human HeLa cells at 1 uM incubated for 16 hrs in presence of maytansine by immunoblot analysis; type: cell-based
[44] = target: T1, Tubulin beta (Homo sapiens); experiment: Induction of Beta tubulin degradation in human HeLa cells at 1 uM incubated for 16 hrs in presence of pironetin by immunoblot analysis; type: cell-based
HCT-116 [45] = experiment: Downregulation of Beta tubulin level in human HCT-116 cells at 1 uM by immunoblot analysis; type: functional, cell-based; conditions: time 1-16 hrs, TDE = time-dependent effect
HCT-116 [46] = experiment: Downregulation of Beta tubulin level in human HCT-116 cells incubated for 24 hrs by immunoblot analysis; type: functional, cell-based; conditions: dose 0.1-10 µM, DDE = dose-dependent effect
SU-DHL-6 [47] = experiment: Downregulation of Alpha tubulin level in human SU-DHL-6 cells incubated for 24 hrs by immunoblot analysis; type: functional, cell-based; conditions: dose 0.1-10 µM, DDE = dose-dependent effect

T4 sequence (P02550 whole entry, looked up): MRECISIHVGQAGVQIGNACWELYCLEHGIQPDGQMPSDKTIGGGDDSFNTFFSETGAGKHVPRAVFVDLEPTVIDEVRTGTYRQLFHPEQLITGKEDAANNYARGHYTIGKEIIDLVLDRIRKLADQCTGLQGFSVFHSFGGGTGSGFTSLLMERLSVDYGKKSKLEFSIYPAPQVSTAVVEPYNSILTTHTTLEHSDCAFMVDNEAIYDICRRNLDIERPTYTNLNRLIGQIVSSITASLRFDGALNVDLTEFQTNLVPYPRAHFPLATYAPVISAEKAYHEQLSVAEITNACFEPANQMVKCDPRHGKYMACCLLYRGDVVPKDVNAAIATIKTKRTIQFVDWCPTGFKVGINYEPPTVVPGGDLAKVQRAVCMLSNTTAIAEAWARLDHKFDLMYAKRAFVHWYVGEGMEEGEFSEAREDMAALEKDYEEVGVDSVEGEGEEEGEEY
T4 sequence (P02554 whole entry, looked up): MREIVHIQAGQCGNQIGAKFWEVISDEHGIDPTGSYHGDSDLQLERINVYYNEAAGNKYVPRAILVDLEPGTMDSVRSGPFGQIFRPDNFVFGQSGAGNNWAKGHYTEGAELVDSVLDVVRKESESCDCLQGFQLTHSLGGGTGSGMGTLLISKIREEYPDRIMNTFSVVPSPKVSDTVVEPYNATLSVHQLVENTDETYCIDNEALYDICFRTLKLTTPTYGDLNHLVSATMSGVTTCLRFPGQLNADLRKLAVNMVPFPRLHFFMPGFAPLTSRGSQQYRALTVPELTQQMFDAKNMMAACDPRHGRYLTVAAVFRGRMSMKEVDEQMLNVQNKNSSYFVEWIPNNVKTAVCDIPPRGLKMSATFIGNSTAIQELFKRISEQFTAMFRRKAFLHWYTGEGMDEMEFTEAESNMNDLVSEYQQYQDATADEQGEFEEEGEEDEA

- Activity [1]: Active
SMILES: c1ccc2c(c1)[nH]c1cnc(NCC3CCCCC3)cc12
- Activity (HeLa [2]): Active

- Activity [1]: Active
SMILES: c1ccc(Oc2cccc(CCc3cc4c(cn3)[nH]c3ccccc34)c2)cc1
- Activity (HeLa [2]): Active

- Activity [1]: Active
SMILES: CCCCNc1cc2c(cn1)[nH]c1ccccc12
- Activity (HeLa [2]): Active

- Activity [3]: Active
- Activity [4]: Active
- DC50 (Tubulin alpha): 182 nM
- DC50 (Tubulin beta): 524 nM
- Activity [6]: Active
- Activity [7]: Active
- Activity [8]: Active
- Activity (Tubulin (Homo sapiens) [11]): Active
- Activity [13]: Active
- Tm (Tubulin (Homo sapiens) [18]): 51.5 °C
- Activity [20]: Active
- inhibition (Tubulin (Sus scrofa) [26]): Dde
- Activity [32]: Active
- Activity (Tubulin (Homo sapiens) [33]): Active
- Activity (Tubulin (Sus scrofa) [38]): Active
- Activity (Tubulin (Homo sapiens) [39]): Active
- Activity [41]: Active
- Activity [42]: Active
- Activity [43]: Active
- Activity [44]: Active
SMILES: c1ccc(Oc2cccc(CNc3cc4c(cn3)[nH]c3ccccc34)c2)cc1
- Activity (HeLa [5]): Tde
- Activity (HeLa [9]): Dde
- Activity (NCI-H460 [10]): Dde
- Activity (HCT-116 [12]): Active
- Activity (HeLa [14]): Active
- Activity (SU-DHL-6 [15]): Dde
- Activity (NCI-H460 [16]): Dde
- Activity (HeLa [17]): Active
- Activity (NCI-H460 [19]): Dde
- Activity (HeLa [21]): Active
- Activity (HeLa [22]): Active
- Activity (HCT-116 [23]): Tde
- Activity (HCT-116 [24]): Dde
- Activity (HCT-116 [25]): Active
- Activity (HCT-116 [27]): Active
- Activity (HCT-116 [28]): Active
- Activity (HeLa [29]): Active
- Activity (HeLa [30]): Tde
- Activity (HCT-116 [31]): Dde
- Activity (HeLa [34]): Dde
- Activity (HeLa [35]): Active
- Activity (NCI-H460 [36]): Active
- Activity (HeLa [37]): Active
- Activity (HeLa [40]): Active
- Activity (HCT-116 [45]): Tde
- Activity (HCT-116 [46]): Dde
- Activity (SU-DHL-6 [47]): Dde
